This test concerns the target recombinant IL4I1 (Homo sapiens (Human), UniProt Q96RQ9). The experiment in a line: IL4I1 Enzymatic Assay (Amplex Red/HRP coupled fluorescence detection of H2O2). The class given is biochemical. Particulars: 240 min; recombinant IL4I1, four-hour pre-incubation with compound. In a few lines:
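Ten-point, 1:3 compound titrations were fitted by four-parameter sigmoidal regression to give EC50. Resorufin fluorescence (544/590 nm) from Amplex Red/HRP-coupled H2O2 detection was read 120 min after adding 1 mM each aromatic amino acid to 1 nM IL4I1, following a 4 h compound pre-incubation in pH 7.0 Hepes buffer.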

The results in this text go back to patent US20240246937A1 (MERCK SHARP & DOHME LLC, priority 2021, published 2024).

Usually EC50 stands for the concentration giving half of the maximal effect.

Molecules are shown by their SMILES.

Chain of recombinant IL4I1 (Q96RQ9 22-567): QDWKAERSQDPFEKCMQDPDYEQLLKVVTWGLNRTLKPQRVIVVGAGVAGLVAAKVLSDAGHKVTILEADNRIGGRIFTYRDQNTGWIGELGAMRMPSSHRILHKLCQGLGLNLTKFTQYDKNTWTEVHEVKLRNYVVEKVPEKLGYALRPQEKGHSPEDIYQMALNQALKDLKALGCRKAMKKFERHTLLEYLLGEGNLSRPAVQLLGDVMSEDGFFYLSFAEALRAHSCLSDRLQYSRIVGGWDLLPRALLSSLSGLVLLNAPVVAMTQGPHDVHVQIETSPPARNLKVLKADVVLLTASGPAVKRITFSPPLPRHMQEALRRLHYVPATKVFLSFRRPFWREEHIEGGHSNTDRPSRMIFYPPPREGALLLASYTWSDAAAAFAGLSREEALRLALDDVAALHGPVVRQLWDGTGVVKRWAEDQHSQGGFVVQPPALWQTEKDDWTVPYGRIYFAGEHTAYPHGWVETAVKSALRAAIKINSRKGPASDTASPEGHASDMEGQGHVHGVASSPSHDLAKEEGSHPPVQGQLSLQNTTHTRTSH

Take `CC1(n2ccn(Cc3ccc(-c4nccs4)nn3)c(=O)c2=O)CC1` [Example 377, 1-(1-methylcyclopropyl)-4-((6-(thiazol-2-yl)pyridazin-3-yl)methyl)-1,4-dihydropyrazine-2,3-dione]: the EC50 came to 71 nM.

Take `O=C1C(=O)N(C2CCCC2)CCN1Cc1ncc(-n2nccn2)cn1` [Example 378, 1-((5-(2H-1,2,3-triazol-2-yl)pyrimidin-2-yl)methyl)-4-cyclopentylpiperazine-2,3-dione]: the EC50 was determined as 138 nM.

With `O=C1C(=O)N(C2CCCC2)CCN1Cc1ccc(-n2nccn2)cc1F` [Example 379, 1-cyclopentyl-4-(2-fluoro-4-(2H-1,2,3-triazol-2-yl)benzyl)piperazine-2,3-dione], the EC50 turned out to be 24 nM.

With `O=C1C(=O)N(C2CCCC2)CCN1Cc1ccc(-n2nccn2)cn1` [Example 380, 1-((5-(2H-1,2,3-triazol-2-yl)pyridin-2-yl)methyl)-4-cyclopentylpiperazine-2,3-dione], the EC50 is 17 nM.

With `CC1(n2ccn(Cc3ccc(-n4cccn4)cn3)c(=O)c2=O)CC1` [Example 381, 1-((5-(1H-pyrazol-1-yl)pyridin-2-yl)methyl)-4-(1-methylcyclopropyl)-1,4-dihydropyrazine-2,3-dione], the EC50 turned out to be 40 nM.

For `O=c1c(=O)n(C23CC(C2)C3)ccn1Cc1ccc(-n2cccn2)cn1` [Example 382, 1-((5-(1H-pyrazol-1-yl)pyridin-2-yl)methyl)-4-(bicyclo[1.1.1]pentan-1-yl)-1,4-dihydropyrazine-2,3-dione], the EC50 is 25 nM.

In the case of `CC1(n2ccn(Cc3ccc(-n4cccn4)nc3)c(=O)c2=O)CC1` [Example 383, 1-((6-(1H-pyrazol-1-yl)pyridin-3-yl)methyl)-4-(1-methylcyclopropyl)-1,4-dihydropyrazine-2,3-dione], the EC50 stood at 26 nM.

Regarding `O=c1c(=O)n(C23CC(C2)C3)ccn1Cc1ccc(-n2cccn2)nc1` [Example 384, 1-((6-(1H-pyrazol-1-yl)pyridin-3-yl)methyl)-4-(bicyclo[1.1.1]pentan-1-yl)-1,4-dihydropyrazine-2,3-dione], the EC50 was 9 nM.

Consider `CC1(n2ccn(Cc3ccc(-n4ccnn4)cn3)c(=O)c2=O)CC1` [Example 385, 1-((5-(1H-1,2,3-triazol-1-yl)pyridin-2-yl)methyl)-4-(1-methylcyclopropyl)-1,4-dihydropyrazine-2,3-dione], for which the EC50 is 42 nM.

For the compound `N#CC1(n2ccn(Cc3ccc(-n4cccn4)cn3)c(=O)c2=O)CC1` [Example 386, 1-(4-((5-(1H-pyrazol-1-yl)pyridin-2-yl)methyl)-2,3-dioxo-3,4-dihydropyrazin-1(2H)-yl)cyclopropane-1-carbonitrile], the EC50 came to 225 nM.

For the compound `N#CC1(n2ccn(Cc3ccc(-n4ccnn4)cn3)c(=O)c2=O)CC1` [Example 387, 1-(4-((5-(1H-1,2,3-triazol-1-yl)pyridin-2-yl)methyl)-2,3-dioxo-3,4-dihydropyrazin-1(2H)-yl)cyclopropane-1-carbonitrile], the EC50 was 677 nM.

As for `O=c1c(=O)n(C23CC(C2)C3)ccn1Cc1ccc(-n2ccnn2)cn1` [Example 388, 1-((5-(1H-1,2,3-triazol-1-yl)pyridin-2-yl)methyl)-4-(bicyclo[1.1.1]pentan-1-yl)-1,4-dihydropyrazine-2,3-dione], the EC50 is 23 nM.

With `N#CC1(n2ccn(Cc3ccc(-n4cccn4)nc3)c(=O)c2=O)CC1` [Example 389, 1-(4-((6-(1H-pyrazol-1-yl)pyridin-3-yl)methyl)-2,3-dioxo-3,4-dihydropyrazin-1(2H)-yl)cyclopropane-1-carbonitrile], the EC50 was determined as 369 nM.

Turning to `N#CC1(n2ccn(Cc3ccc(-n4ccnn4)nc3)c(=O)c2=O)CC1` [Example 390, 1-(4-((6-(1H-1,2,3-triazol-1-yl)pyridin-3-yl)methyl)-2,3-dioxo-3,4-dihydropyrazin-1(2H)-yl)cyclopropane-1-carbonitrile], the EC50 was 343 nM.

Turning to `N#CC1(n2ccn(Cc3ccc(-n4nccn4)nc3)c(=O)c2=O)CC1` [Example 391, 1-(4-((6-(2H-1,2,3-triazol-2-yl)pyridin-3-yl)methyl)-2,3-dioxo-3,4-dihydropyrazin-1(2H)-yl)cyclopropane-1-carbonitrile], the EC50 was determined as 170 nM.

`O=C1C(=O)N(C2CCCC2)CCN1Cc1ccc(N2CCC(F)(F)C2)nc1` [Example 392, 1-cyclopentyl-4-((6-(3,3-difluoropyrrolidin-1-yl)pyridin-3-yl)methyl)piperazine-2,3-dione]: the EC50 was 31 nM.

For `O=C1C(=O)N(C2CCCC2)CCN1Cc1ccc(N2CCC(F)C2)nc1` (stereo not drawn) [Example 393, 1-cyclopentyl-4-((6-(3-fluoropyrrolidin-1-yl)pyridin-3-yl)methyl)piperazine-2,3-dione], the EC50 turned out to be 33 nM.

For `O=C1C(=O)N(C2CCC2)CCN1Cc1ccc(-c2cnco2)nn1` [Example 394, 1-cyclobutyl-4-((6-(oxazol-5-yl)pyridazin-3-yl)methyl)piperazine-2,3-dione], the EC50 was found to be 31 nM.

As to `O=C1C(=O)N(C2CCC2)CCN1Cc1ccc(-c2cncs2)nn1` [Example 395, 1-cyclobutyl-4-((6-(thiazol-5-yl)pyridazin-3-yl)methyl)piperazine-2,3-dione], the EC50 amounted to 8 nM.

As for `O=c1c(=O)n(C2CCC2)ccn1Cc1nnc(-c2ccccc2)s1` [Example 396, 1-cyclobutyl-4-((5-phenyl-1,3,4-thiadiazol-2-yl)methyl)-1,4-dihydropyrazine-2,3-dione], the EC50 turned out to be 5 nM.

In the case of `O=c1c(=O)n(C2CCC2)ccn1Cc1ccc(-n2nccn2)cn1` [Example 397, 1-((5-(2H-1,2,3-triazol-2-yl)pyridin-2-yl)methyl)-4-cyclobutyl-1,4-dihydropyrazine-2,3-dione], the EC50 is 11 nM.

With `O=C1C(=O)N(C2CCC2)CCN1Cc1ccc(-n2nccn2)nn1` [Example 398, 1-((6-(2H-1,2,3-triazol-2-yl)pyridazin-3-yl)methyl)-4-cyclobutylpiperazine-2,3-dione], the EC50 stood at 22 nM.

Regarding `O=C1C(=O)N(C2CCC2)CCN1Cc1ccc(-n2nccn2)cc1` [Example 399, 1-(4-(2H-1,2,3-triazol-2-yl)benzyl)-4-cyclobutylpiperazine-2,3-dione], the EC50 stood at 19 nM.

Take `O=C1C(=O)N(C2CCC2)CCN1Cc1ncc(-n2nccn2)cc1F` [Example 400, 1-cyclobutyl-4-((3-fluoro-5-(2H-1,2,3-triazol-2-yl)pyridin-2-yl)methyl)piperazine-2,3-dione]: the EC50 amounted to 25 nM.

For the compound `O=C1C(=O)N(C23CC(C2)C3)CCN1Cc1ccc(-n2nccn2)nn1` [Example 401, 1-((6-(2H-1,2,3-triazol-2-yl)pyridazin-3-yl)methyl)-4-(bicyclo[1.1.1]pentan-1-yl)piperazine-2,3-dione], the EC50 is 48 nM.

With `O=C1C(=O)N(C23CC(C2)C3)CCN1Cc1ccc(-n2ccnn2)nn1` [Example 402, 1-((6-(1H-1,2,3-triazol-1-yl)pyridazin-3-yl)methyl)-4-(bicyclo[1.1.1]pentan-1-yl)piperazine-2,3-dione], the EC50 was determined as 36 nM.

`O=c1c(=O)n(C23CC(C2)C3)ccn1Cc1ccc(-n2nccn2)nn1` [Example 403, 1-((6-(2H-1,2,3-triazol-2-yl)pyridazin-3-yl)methyl)-4-(bicyclo[1.1.1]pentan-1-yl)-1,4-dihydropyrazine-2,3-dione]: the EC50 is 17 nM.
